# Reference: patent US20250144067A1, “PERSONALIZED STARVATION THERAPY FOR CANCER” (Faeth Therapeutics, Inc., priority 2021, published 2025)
# Structures can show the parent of a compound that is named as a salt. Peptide text beside a SMILES is read from it.
# Tests used:
# [1] = test system: NCI-H292 lung cancer cells; assay: FDA drug screening, complete media vs cholesterol-free media without statin (TABLE 1); assay type: cell-based, human
# [2] = test system: NCI-H292 lung cancer cells; assay: FDA drug screening, complete media vs cholesterol-free media with simvastatin (TABLE 2); assay type: cell-based, human; settings: for Cholesterol-free media + simvastatin (0.04 μM) / Complete Media: NCI-H292 cells
# [3] = NCI-H292 cells, cholesterol-free media without statin, FDA drug library screen
# [4] = NCI-H292 cells, complete media, FDA drug library screen
# [5] = complete vs cholesterol-free media, >0 enhanced anti-cancer activity, about 0 neutral, <0 antagonist
# [6] = cholesterol-free media with simvastatin 0.04 μM, FDA drug library screen (TABLE 2)
# [7] = complete media, FDA drug library screen (TABLE 2)
# [8] = complete media minus cholesterol-free media + simvastatin (0.04 μM), >0 enhanced anti-cancer activity, about 0 neutral, <0 antagonist
# [9] = FDA drug library screen, cholesterol-free media with simvastatin 0.04 μM
# [10] = FDA drug library screen, complete media
# [11] = complete media minus cholesterol-free media + simvastatin, >0 enhanced anti-cancer activity, about 0 neutral, <0 antagonist
# [12] = Complete minus Cholesterol-free, >0 enhanced anti-cancer activity, about 0 neutral, <0 antagonist
# [13] = NCI-H292 cells, cholesterol-free media without statin
# [14] = drug in cholesterol-free media with simvastatin 0.04 μM
# [15] = complete media vs cholesterol-free media + simvastatin (0.04 μM), >0 enhanced anti-cancer activity, about 0 neutral, <0 antagonist
# [16] = Complete minus Cholesterol-free, […]
# [17] = complete media vs cholesterol-free media + simvastatin (0.04 μM), […]
# [18] = complete vs cholesterol-free media, greater than 0 enhanced anti-cancer activity, about 0 neutral, below 0 antagonists
# [19] = FDA library drug in cholesterol-free media with simvastatin 0.04 μM
# [20] = FDA library drug in complete media
# [21] = cholesterol-free media with simvastatin 0.04 μM, cell growth value in FDA drug screen
# [22] = complete media, cell growth value in FDA drug screen
# [23] = Complete minus Cholesterol-free, greater than 0 enhanced anti-cancer activity, about 0 neutral, below 0 antagonist
# [24] = NCI-H292 cells, FDA drug library screen, cholesterol-free media without statin
# [25] = NCI-H292 cells, FDA drug library screen, complete media
# [26] = NCI-H292 cells in cholesterol-free media without statin
# [27] = NCI-H292 cells in complete media
smiles,measurement,setting,value
COc1ccc(C(=O)N2CCCC2=O)cc1 [Aniracetam],Cholesterol-free,[1]; [3],0.69
same,Complete,[1]; [4],1.062
same,Difference,[1]; [5],0.37
same,Cholesterol-free media + simvastatin (0.04 μM),[2]; [6],1.041
same,Complete Media,[2]; [7],1.006
same,Difference,[2]; [8],−0.04
COc1ccc(C2C(=O)c3ccccc3C2=O)cc1 [Anisindione],Cholesterol-free,[1]; [3],0.8915
same,Complete,[1]; [4],1.35
same,Difference,[1]; [5],0.46
same,Cholesterol-free media + simvastatin (0.04 μM),[2]; [9],1.296
same,Complete Media,[2]; [10],1.617
same,Difference,[2]; [11],0.32
c1ccc(CN(CC2=NCCN2)c2ccccc2)cc1 [Antazoline (hydrochloride)],Difference,[1]; [12],−0.24
same,Cholesterol-free,[1]; [13],1.006
same,Complete,"[1]; NCI-H292 cells, complete media",0.7704
same,Cholesterol-free media + simvastatin (0.04 μM),[2]; [14],1.401
same,Complete Media,[2]; drug in complete media,1.21
same,Difference,[2]; [15],−0.19
Cc1cc(=O)n(-c2ccccc2)n1C [Antipyrine],Difference,[1]; [16],−0.24
same,Cholesterol-free,[1]; [13],1.066
same,Complete,"[1]; NCI-H292 cells, complete media",0.8256
same,Cholesterol-free media + simvastatin (0.04 μM),[2]; [9],0.9785
same,Complete Media,[2]; [10],0.8535
same,Difference,[2]; [17],−0.13
CNC(=O)c1ccc(N2C(=S)N(c3cnc(C#N)c(C(F)(F)F)c3)C(=O)C23CCC3)cc1F [Apalutamide],Cholesterol-free,[1]; [13],1.195
same,Complete,"[1]; NCI-H292 cells, complete media",0.8274
same,Difference,[1]; [18],−0.37
same,Cholesterol-free media + simvastatin (0.04 μM),[2]; [6],1.113
same,Complete Media,[2]; [7],1.082
same,Difference,[2]; [8],−0.03
COc1ccc(-n2nc(C(N)=O)c3c2C(=O)N(c2ccc(N4CCCCC4=O)cc2)CC3)cc1 [Apixaban],Difference,[1]; [12],−0.06
same,Cholesterol-free,[1]; [3],0.9998
same,Complete,[1]; [4],0.9349
same,Cholesterol-free media + simvastatin (0.04 μM),[2]; [9],0.9978
same,Complete Media,[2]; [10],1.135
same,Difference,[2]; [11],0.14
Nc1cc(Cl)c(N=C2NCCN2)c(Cl)c1 [Apraclonidine (hydrochloride)],Complete,"[1]; NCI-H292 cells, complete media",1.213
same,Difference,[1]; [18],−0.41
same,Cholesterol-free media + simvastatin (0.04 μM),[2]; [19],1.345
same,Complete Media,[2]; [20],1.018
same,Difference,[2]; [15],−0.33
CCOc1cc([C@@H](CS(C)(=O)=O)N2C(=O)c3cccc(NC(C)=O)c3C2=O)ccc1OC [Apremilast],Cholesterol-free,[1]; [3],1.127
same,Complete,[1]; [4],1.856
same,Difference,[1]; [5],0.73
same,Cholesterol-free media + simvastatin (0.04 μM),[2]; [9],1.396
same,Complete Media,[2]; [10],1.812
same,Difference,[2]; [11],0.42
C[C@@H](O[C@H]1OCCN(Cc2n[nH]c(=O)[nH]2)[C@H]1c1ccc(F)cc1)c1cc(C(F)(F)F)cc(C(F)(F)F)c1 [Aprepitant],Difference,[1]; [12],−0.20
same,Cholesterol-free,[1]; [13],0.998
same,Complete,"[1]; NCI-H292 cells, complete media",0.7992
same,Cholesterol-free media + simvastatin (0.04 μM),[2]; [21],1.036
same,Complete Media,[2]; [22],1.144
same,Difference,[2]; [11],0.11
C=CCC(C(=O)NC(N)=O)C(C)C (centres unmarked) [Apronal],Cholesterol-free,[1]; [3],1.287
same,Complete,[1]; [4],1.458
same,Difference,"[1]; complete vs cholesterol-free media, […]",0.17
same,Cholesterol-free media + simvastatin (0.04 μM),[2]; [14],1.688
same,Complete Media,[2]; drug in complete media,1.479
same,Difference,[2]; [17],−0.21
CC1CNc2c(cccc2S(=O)(=O)N[C@@H](CCCNC(=N)N)C(=O)N2CC[C@@H](C)C[C@@H]2C(=O)O)C1 (some centres unmarked) [Argatroban (monohydrate)],Difference,[1]; [23],−0.08
same,Cholesterol-free,[1]; [24],1.232
same,Cholesterol-free media + simvastatin (0.04 μM),[2]; [14],1.179
same,Complete Media,[2]; drug in complete media,0.9367
same,Difference,[2]; [15],−0.24
CCCCCCCCCCCC(=O)OCN1C(=O)CCc2ccc(OCCCCN3CCN(c4cccc(Cl)c4Cl)CC3)cc21 [Aripiprazole Lauroxil],Difference,[1]; [16],−0.06
same,Cholesterol-free,[1]; [3],0.9297
same,Complete,[1]; [4],0.8705
same,Cholesterol-free media + simvastatin (0.04 μM),[2]; [6],0.9724
same,Complete Media,[2]; [7],0.9697
same,Difference,"[2]; complete media minus cholesterol-free media + simvastatin (0.04 μM), […]",0.00
O=C1CCc2ccc(OCCCCN3CCN(c4cccc(Cl)c4Cl)CC3)cc2N1 [Aripiprazole],Difference,[1]; [23],−0.16
same,Cholesterol-free,[1]; [24],0.9968
same,Complete,[1]; [25],0.833
same,Cholesterol-free media + simvastatin (0.04 μM),[2]; [14],1.264
same,Complete Media,[2]; drug in complete media,1.028
same,Difference,[2]; [15],−0.24
COc1cccc2c1cc([N+](=O)[O-])c1c(C(=O)O)cc3c(c12)OCO3 [Aristolochic acid A],Difference,[1]; [16],−0.56
same,Cholesterol-free,[1]; [26],1.282
same,Complete,[1]; [27],0.7241
same,Cholesterol-free media + simvastatin (0.04 μM),[2]; [19],0.923
same,Complete Media,[2]; [20],0.5762
same,Difference,[2]; [17],−0.35
CC(C)(C)NCC(O)CSc1nc(-c2ccc(C(N)=O)s2)cs1 (centres unmarked) [Arotinolol],Difference,[1]; [23],−0.18
same,Cholesterol-free,[1]; [24],1.165
same,Complete,[1]; [25],0.9888
same,Cholesterol-free media + simvastatin (0.04 μM),[2]; [9],1.158
same,Complete Media,[2]; [10],1.017
same,Difference,[2]; [15],−0.14
CO[C@H]1O[C@@H]2O[C@@]3(C)CC[C@H]4[C@H](C)CC[C@@H]([C@H]1C)[C@@]24OO3 [Artemether],Difference,[1]; [12],−0.26
same,Cholesterol-free,[1]; [13],1.059
same,Complete,"[1]; NCI-H292 cells, complete media",0.7961
same,Cholesterol-free media + simvastatin (0.04 μM),[2]; [9],0.6524
same,Complete Media,[2]; [10],0.841
same,Difference,[2]; [11],0.19
C[C@@H]1CC[C@H]2[C@@H](C)C(=O)O[C@@H]3O[C@@]4(C)CC[C@@H]1[C@]32OO4 [Artemisinin],Difference,[1]; [12],−0.06
same,Cholesterol-free,[1]; [3],0.8489
same,Complete,[1]; [4],0.7892
same,Complete Media,[2]; [20],0.8603
same,Difference,[2]; [15],−0.76
CCO[C@H]1O[C@@H]2O[C@@]3(C)CC[C@H]4[C@H](C)CC[C@@H]([C@H]1C)[C@@]24OO3 [Artemotil],Difference,[1]; [12],−0.21
same,Cholesterol-free,[1]; [13],0.7572
same,Complete,"[1]; NCI-H292 cells, complete media",0.5514
same,Cholesterol-free media + simvastatin (0.04 μM),[2]; [9],0.9606
same,Complete Media,[2]; [10],0.8046
same,Difference,[2]; [15],−0.16
CC(C)(N)CNC(=O)C[C@H]1CC[C@]2(CC1)OO[C@]1(O2)C2CC3CC(C2)CC1C3 [Arterolane],Difference,[1]; [23],−0.17
same,Cholesterol-free,[1]; [24],1.167
same,Complete,[1]; [25],0.9934
same,Cholesterol-free media + simvastatin (0.04 μM),[2]; [9],1.129
same,Complete Media,[2]; [10],1.314
same,Difference,[2]; [11],0.19
C[C@H]1[C@H](OC(=O)CCC(=O)O)O[C@@H]2O[C@@]3(C)CC[C@H]4[C@H](C)CC[C@@H]1[C@@]24OO3 [Artesunate],Cholesterol-free,[1]; [13],0.9732
same,Complete,"[1]; NCI-H292 cells, complete media",0.63
same,Difference,[1]; [18],−0.34
same,Cholesterol-free media + simvastatin (0.04 μM),[2]; [9],1.06
same,Complete Media,[2]; [10],0.9407
same,Difference,[2]; [15],−0.12
CCCNC(C)C(=O)Nc1c(C)csc1C(=O)OC (centres unmarked) [Articaine (hydrochloride)],Cholesterol-free,[1]; [3],1.045
same,Complete,[1]; [4],1.285
same,Difference,[1]; [5],0.24
same,Cholesterol-free media + simvastatin (0.04 μM),[2]; [9],0.9336
same,Complete Media,[2]; [10],0.8247
same,Difference,[2]; [15],−0.11
CN1CC2c3ccccc3Oc3ccc(Cl)cc3C2C1 (centres unmarked) [Asenapine (hydrochloride)],Cholesterol-free,[1]; [3],1.288
same,Complete,[1]; [4],1.388
same,Difference,[1]; [5],0.10
same,Cholesterol-free media + simvastatin (0.04 μM),[2]; [21],1.244
same,Complete Media,[2]; [22],1.302
same,Difference,[2]; [11],0.06
CN1CC2c3ccccc3Oc3ccc(Cl)cc3C2C1 (centres unmarked) [Asenapine],Cholesterol-free,[1]; [13],1.636
same,Complete,"[1]; NCI-H292 cells, complete media",1.303
same,Difference,[1]; [18],−0.33
same,Cholesterol-free media + simvastatin (0.04 μM),[2]; [14],0.918
same,Complete Media,[2]; drug in complete media,0.7002
same,Difference,[2]; [15],−0.22
COC(=O)[C@H](Cc1ccccc1)NC(=O)[C@@H](N)CC(=O)O [Aspartame] (HELM PEPTIDE1{D.F.[CO[*:1]]}$$$$V2.0),Difference,[1]; [12],−0.06
same,Cholesterol-free,[1]; [3],1.044
same,Complete,[1]; [4],0.9887
same,Cholesterol-free media + simvastatin (0.04 μM),[2]; [14],1.165
same,Complete Media,[2]; drug in complete media,0.9998
same,Difference,[2]; [15],−0.17
CC(=O)Oc1ccccc1C(=O)O [Aspirin],Cholesterol-free,[1]; [13],1.474
same,Complete,"[1]; NCI-H292 cells, complete media",1.02
same,Difference,[1]; [18],−0.45
same,Cholesterol-free media + simvastatin (0.04 μM),[2]; [14],1.19
same,Complete Media,[2]; drug in complete media,0.9812
same,Difference,[2]; [15],−0.21
C=C[C@@H]1C[C@]1(NC(=O)[C@@H]1C[C@@H](Oc2ncc(OC)c3ccc(Cl)cc23)CN1C(=O)[C@@H](NC(=O)OC(C)(C)C)C(C)(C)C)C(=O)NS(=O)(=O)C1CC1 [Asunaprevir],Difference,[1]; [23],−0.09
same,Cholesterol-free,[1]; [24],1.081
same,Complete,[1]; [25],0.9902
same,Cholesterol-free media + simvastatin (0.04 μM),[2]; [6],1.005
same,Complete Media,[2]; [7],0.9979
same,Difference,[2]; [8],−0.01
CC(C)NCC(O)COc1ccc(CC(N)=O)cc1 (centres unmarked) [Atenolol],Difference,[1]; [12],−0.26
same,Cholesterol-free,[1]; [13],1.429
same,Cholesterol-free media + simvastatin (0.04 μM),[2]; [21],0.9412
same,Complete Media,[2]; [22],1.006
same,Difference,[2]; [11],0.06
CNCC[C@@H](Oc1ccccc1C)c1ccccc1 [Atomoxetine (hydrochloride)],Difference,"[1]; Complete minus Cholesterol-free, greater than 0 enhanced anti-cancer activity, about 0 neutral, below 0 antagonists",−0.68
same,Cholesterol-free,[1]; [26],1.663
same,Complete,[1]; [27],0.988
same,Cholesterol-free media + simvastatin (0.04 μM),[2]; [21],1.776
same,Complete Media,[2]; [22],1.803
same,Difference,[2]; [11],0.03
